Literature values as cited in US6511813B1, “Elongation factor P (EFP) and assays and antimicrobial treatments related to the same” (Pharmacia & Upjohn Company, priority 1999, dated 2003).

Key:
peptidyltransferase [1] = system: peptidyltransferase
peptidyltransferase [2] = system: peptidyltransferase; remark: listed apart in the source
[3] = system: fMet-tRNAfMet/ribosome translation complex

Compound	effect on efp reaction (efp)	effect on the peptide-bond synthesis which occurs in the absence of efp (peptidyltransferase [2])	effect on formation of the fMet-tRNAfMet/ribosome translation complex [3]	also measured
CC[C@H]1OC(=O)[C@H](C)[C@@H](O[C@H]2C[C@@](C)(OC)[C@@H](O)[C@H](C)O2)[C@H](C)[C@@H](O[C@@H]2O[C@H](C)C[C@H](N(C)C)[C@H]2O)[C@](C)(O)C[C@@H](C)C(=O)[C@H](C)[C@@H](O)[C@]1(C)O [Erythromycin]	–	–	–	effect on the efp reaction (efp; at 5×10^−5): no apparent effect
CCC[C@@H]1C[C@@H](C(=O)N[C@@H]([C@H]2O[C@H](SC)[C@H](O)[C@@H](O)[C@H]2O)[C@@H](C)O)N(C)C1 [Lincomycin]	nullifies the ability of efp to stimulate synthesis of peptide bonds	–	–	effect on the synthesis of polyphenylalanine (ribosome): marginal effects; effect on the puromycin reaction (peptidyltransferase [1]): inhibits
[H]/N=C(/N)N[C@H]1[C@H](O)[C@@H](O)[C@H](O[C@@H]2O[C@@H](C)[C@](O)(C=O)[C@H]2O[C@@H]2O[C@@H](CO)[C@H](O)[C@@H](O)[C@@H]2NC)[C@@H](N/C(N)=N\[H])[C@@H]1O [Streptomycin]	–	–	–	inhibition of the efp-mediated reaction (efp; at 2×10^−5 M): potent inhibitor
C=C(NC(=O)C(=C)NC(=O)c1csc(C2=N[C@@H]3c4csc(n4)[C@H]4NC(=O)c5csc(n5)[C@H]([C@](C)(O)[C@@H](C)O)NC(=O)[C@H]5CSC(=N5)/C(=C/C)NC(=O)[C@H]([C@@H](C)O)NC(=O)c5csc(n5)[C@]3(CC2)NC(=O)[C@H](C)NC(=O)C(=C)NC(=O)[C@H](C)NC(=O)[C@H]([C@@H](C)CC)N[C@@H]2C=Cc3c([C@H](C)O)cc(nc3[C@H]2O)C(=O)O[C@@H]4C)n1)C(N)=O [thiostrepton]	inhibit only about 20% or have no effect	no effect	no effect	–
neomycin	inhibit only about 20% or have no effect	no effect	no effect	–
